In patent US20090299044A1 (priority 2006, published 2009) one finds IC50 data, which are given here for eight compounds.

In one assay the target is T1, human Kv1.3 (CHO) (Homo sapiens, UniProt P22001).
T1 construct: expressed in transfected cells; host or cells: CHO
Briefly: cell-based.

The next assay has as its target T2, human Kv1.1 (HEK293) (Homo sapiens, UniProt Q09470).
T2 construct: expressed in transfected cells; host or cells: HEK293
Briefly: cell-based.

Bridge positions count the residues as written; N and C are the ends. Square brackets hold non-standard residues; d marks the D form. Peptide text beside a SMILES is read from it. 1Nal = N[C@@H](Cc1cccc2ccccc12)C(=O)O

T2 sequence (Q09470 whole entry): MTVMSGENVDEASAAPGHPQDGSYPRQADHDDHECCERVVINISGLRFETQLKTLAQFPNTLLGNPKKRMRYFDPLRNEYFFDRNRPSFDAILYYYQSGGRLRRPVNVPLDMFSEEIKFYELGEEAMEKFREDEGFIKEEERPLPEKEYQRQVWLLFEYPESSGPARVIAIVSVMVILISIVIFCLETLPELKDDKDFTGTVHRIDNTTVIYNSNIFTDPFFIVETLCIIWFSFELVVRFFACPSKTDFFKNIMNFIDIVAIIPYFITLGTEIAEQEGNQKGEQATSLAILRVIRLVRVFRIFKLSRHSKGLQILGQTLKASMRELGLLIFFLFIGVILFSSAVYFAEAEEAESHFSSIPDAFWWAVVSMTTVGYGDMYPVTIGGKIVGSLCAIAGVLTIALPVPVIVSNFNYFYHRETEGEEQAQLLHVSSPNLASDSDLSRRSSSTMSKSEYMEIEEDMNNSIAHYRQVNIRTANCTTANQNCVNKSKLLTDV
T1 sequence (P22001 whole entry): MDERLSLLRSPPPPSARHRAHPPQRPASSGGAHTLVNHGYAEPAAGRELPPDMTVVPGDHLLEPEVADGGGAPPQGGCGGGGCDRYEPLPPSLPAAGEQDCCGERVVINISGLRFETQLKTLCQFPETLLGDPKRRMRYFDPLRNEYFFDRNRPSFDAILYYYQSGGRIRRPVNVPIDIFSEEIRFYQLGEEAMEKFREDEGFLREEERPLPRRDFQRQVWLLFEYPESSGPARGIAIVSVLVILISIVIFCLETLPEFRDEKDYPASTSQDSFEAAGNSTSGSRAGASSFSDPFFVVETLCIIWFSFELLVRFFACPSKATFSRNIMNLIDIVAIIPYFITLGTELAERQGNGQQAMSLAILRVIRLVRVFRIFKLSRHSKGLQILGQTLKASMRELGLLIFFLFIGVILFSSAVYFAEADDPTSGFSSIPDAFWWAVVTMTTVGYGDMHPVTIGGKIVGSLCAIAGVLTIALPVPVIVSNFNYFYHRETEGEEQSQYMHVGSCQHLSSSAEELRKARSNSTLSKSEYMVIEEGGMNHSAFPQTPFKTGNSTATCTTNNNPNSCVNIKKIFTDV

Broadly, the IC50 is the concentration that gives 50% inhibition. A high value points to weaker potency. For `CC[C@H](C)[C@@H]1NC(=O)[C@H](C)NC(=O)[C@@H](NC(=O)[C@H](CCCCN)NC(=O)[C@@H](NC(=O)[C@H](CC(N)=O)NC(=O)[C@@H](NC(=O)[C@@H](NC(=O)[C@@H](NC(=O)CN)C(C)C)[C@@H](C)CC)[C@@H](C)CC)C(C)C)CSSC[C@@H]2NC(=O)[C@H](CCCCN)NC(=O)CNC(=O)[C@H](Cc3ccccc3)NC(=O)[C@H](CCCNC(=N)N)NC(=O)[C@H](CCSC)NC(=O)CNC(=O)[C@H](C)NC(=O)[C@H](CCCCN)NC(=O)[C@H](CCCCN)NC(=O)[C@@H]3CSSC[C@@H](C(=O)N[C@H](C(=O)N4CCC[C@H]4C(=O)N[C@@H](CCCCN)C(=O)O)[C@@H](C)O)NC(=O)[C@H](Cc4c[nH]cn4)NC(=O)[C@H](CSSC[C@H](NC(=O)[C@H](CCC(N)=O)NC(=O)[C@H](CCCNC(=N)N)NC(=O)[C@H](CO)NC1=O)C(=O)N[C@@H](CC(C)C)C(=O)N[C@@H](CCC(=O)O)C(=O)N1CCC[C@H]1C(=O)N3)NC(=O)[C@H](CCCCN)NC(=O)CNC(=O)[C@H](CC(N)=O)NC(=O)[C@H](CCSC)NC2=O` [K9A] (H-GVIINVKCAISRQCLEPCKKAGMRFGKCMNGKCHCTPK-OH; disulfide 8-28, 14-33, 18-35), the IC50 was determined as 0.166 nM against human Kv1.3 (CHO) and 0.0406 nM against human Kv1.1 (HEK293).

As to `CC[C@H](C)[C@@H]1NC(=O)[C@H](CCC(=O)O)NC(=O)[C@@H](NC(=O)[C@H](CCCCN)NC(=O)[C@@H](NC(=O)[C@H](CC(N)=O)NC(=O)[C@@H](NC(=O)[C@@H](NC(=O)[C@@H](NC(=O)CN)C(C)C)[C@@H](C)CC)[C@@H](C)CC)C(C)C)CSSC[C@@H]2NC(=O)[C@H](CCCCN)NC(=O)CNC(=O)[C@H](Cc3ccccc3)NC(=O)[C@H](CCCNC(=N)N)NC(=O)[C@H](CCSC)NC(=O)CNC(=O)[C@H](C)NC(=O)[C@H](CCCCN)NC(=O)[C@H](CCCCN)NC(=O)[C@@H]3CSSC[C@@H](C(=O)N[C@H](C(=O)N4CCC[C@H]4C(=O)N[C@@H](CCCCN)C(=O)O)[C@@H](C)O)NC(=O)[C@H](Cc4c[nH]cn4)NC(=O)[C@H](CSSC[C@H](NC(=O)[C@H](CCC(N)=O)NC(=O)[C@H](CCCNC(=N)N)NC(=O)[C@H](CO)NC1=O)C(=O)N[C@@H](CC(C)C)C(=O)N[C@@H](CCC(=O)O)C(=O)N1CCC[C@H]1C(=O)N3)NC(=O)[C@H](CCCCN)NC(=O)CNC(=O)[C@H](CC(N)=O)NC(=O)[C@H](CCSC)NC2=O` [K9E] (H-GVIINVKCEISRQCLEPCKKAGMRFGKCMNGKCHCTPK-OH; disulfide 8-28, 14-33, 18-35), the IC50 on human Kv1.3 (CHO) was 0.0318 nM; at human Kv1.1 (HEK293), 0.111 nM.

Turning to `CC[C@H](C)[C@@H]1NC(=O)[C@H](Cc2cccc3ccccc23)NC(=O)[C@@H](NC(=O)[C@H](CCCCN)NC(=O)[C@@H](NC(=O)[C@H](CC(N)=O)NC(=O)[C@@H](NC(=O)[C@@H](NC(=O)[C@@H](NC(=O)CN)C(C)C)[C@@H](C)CC)[C@@H](C)CC)C(C)C)CSSC[C@@H]2NC(=O)[C@H](CCCCN)NC(=O)CNC(=O)[C@H](Cc3ccccc3)NC(=O)[C@H](CCCNC(=N)N)NC(=O)[C@H](CCSC)NC(=O)CNC(=O)[C@H](C)NC(=O)[C@H](CCCCN)NC(=O)[C@H](CCCCN)NC(=O)[C@@H]3CSSC[C@@H](C(=O)N[C@H](C(=O)N4CCC[C@H]4C(=O)N[C@@H](CCCCN)C(=O)O)[C@@H](C)O)NC(=O)[C@H](Cc4c[nH]cn4)NC(=O)[C@H](CSSC[C@H](NC(=O)[C@H](CCC(N)=O)NC(=O)[C@H](CCCNC(=N)N)NC(=O)[C@H](CO)NC1=O)C(=O)N[C@@H](CC(C)C)C(=O)N[C@@H](CCC(=O)O)C(=O)N1CCC[C@H]1C(=O)N3)NC(=O)[C@H](CCCCN)NC(=O)CNC(=O)[C@H](CC(N)=O)NC(=O)[C@H](CCSC)NC2=O` [K9Nal] (H-GVIINVKC[1Nal]ISRQCLEPCKKAGMRFGKCMNGKCHCTPK-OH; disulfide 8-28, 14-33, 18-35), the IC50 at human Kv1.3 (CHO) was 0.0658 nM; against human Kv1.1 (HEK293), 0.00292 nM.

Regarding `CC[C@H](C)[C@@H]1NC(=O)[C@H](CCCNC(=N)N)NC(=O)[C@@H](NC(=O)[C@H](CCCCN)NC(=O)[C@@H](NC(=O)[C@H](CC(N)=O)NC(=O)[C@@H](NC(=O)[C@@H](NC(=O)[C@@H](NC(=O)CN)C(C)C)[C@@H](C)CC)[C@@H](C)CC)C(C)C)CSSC[C@@H]2NC(=O)[C@H](CCCCN)NC(=O)CNC(=O)[C@H](Cc3ccccc3)NC(=O)[C@H](CCCNC(=N)N)NC(=O)[C@H](CCSC)NC(=O)CNC(=O)[C@H](C)NC(=O)[C@H](CCCCN)NC(=O)[C@H](CCCCN)NC(=O)[C@@H]3CSSC[C@@H](C(=O)N[C@H](C(=O)N4CCC[C@H]4C(=O)N[C@@H](CCCCN)C(=O)O)[C@@H](C)O)NC(=O)[C@H](Cc4c[nH]cn4)NC(=O)[C@H](CSSC[C@H](NC(=O)[C@H](CCC(N)=O)NC(=O)[C@H](CCCNC(=N)N)NC(=O)[C@H](CO)NC1=O)C(=O)N[C@@H](CC(C)C)C(=O)N[C@@H](CCC(=O)O)C(=O)N1CCC[C@H]1C(=O)N3)NC(=O)[C@H](CCCCN)NC(=O)CNC(=O)[C@H](CC(N)=O)NC(=O)[C@H](CCSC)NC2=O` [K9R] (H-GVIINVKCRISRQCLEPCKKAGMRFGKCMNGKCHCTPK-OH; disulfide 8-28, 14-33, 18-35), the figures for the IC50 against human Kv1.3 (CHO) and at human Kv1.1 (HEK293) were 0.012 nM and 0.00201 nM, respectively.

As for `CC[C@H](C)[C@@H]1NC(=O)[C@H](CCCCN)NC(=O)[C@@H](NC(=O)[C@H](CCCCN)NC(=O)[C@@H](NC(=O)[C@H](CC(N)=O)NC(=O)[C@@H](NC(=O)[C@@H](NC(=O)[C@@H](NC(=O)CN)C(C)C)[C@@H](C)CC)[C@@H](C)CC)C(C)C)CSSC[C@@H]2NC(=O)[C@H](CCCCN)NC(=O)CNC(=O)[C@H](Cc3ccccc3)NC(=O)[C@H](CCCNC(=N)N)NC(=O)[C@H](CCSC)NC(=O)CNC(=O)[C@H](C)NC(=O)[C@H](CCCCN)NC(=O)[C@H](C)NC(=O)[C@@H]3CSSC[C@@H](C(=O)N[C@H](C(=O)N4CCC[C@H]4C(=O)N[C@@H](CCCCN)C(=O)O)[C@@H](C)O)NC(=O)[C@H](Cc4c[nH]cn4)NC(=O)[C@H](CSSC[C@H](NC(=O)[C@H](CCC(N)=O)NC(=O)[C@H](CCCNC(=N)N)NC(=O)[C@H](CO)NC1=O)C(=O)N[C@@H](CC(C)C)C(=O)N[C@@H](CCC(=O)O)C(=O)N1CCC[C@H]1C(=O)N3)NC(=O)[C@H](CCCCN)NC(=O)CNC(=O)[C@H](CC(N)=O)NC(=O)[C@H](CCSC)NC2=O` [K19A] (H-GVIINVKCKISRQCLEPCAKAGMRFGKCMNGKCHCTPK-OH; disulfide 8-28, 14-33, 18-35), the IC50 against human Kv1.3 (CHO) was 0.21 nM; against human Kv1.1 (HEK293) it was 0.0168 nM.

As for `CC[C@H](C)[C@@H]1NC(=O)[C@H](CCCCN)NC(=O)[C@@H](NC(=O)[C@H](CCCCN)NC(=O)[C@@H](NC(=O)[C@H](CC(N)=O)NC(=O)[C@@H](NC(=O)[C@@H](NC(=O)[C@@H](NC(=O)CN)C(C)C)[C@@H](C)CC)[C@@H](C)CC)C(C)C)CSSC[C@@H]2NC(=O)[C@H](CCCCN)NC(=O)CNC(=O)[C@H](Cc3ccccc3)NC(=O)[C@H](CCCNC(=N)N)NC(=O)[C@H](CCSC)NC(=O)CNC(=O)[C@H](C)NC(=O)[C@H](CCCCN)NC(=O)[C@H](CCC(=O)O)NC(=O)[C@@H]3CSSC[C@@H](C(=O)N[C@H](C(=O)N4CCC[C@H]4C(=O)N[C@@H](CCCCN)C(=O)O)[C@@H](C)O)NC(=O)[C@H](Cc4c[nH]cn4)NC(=O)[C@H](CSSC[C@H](NC(=O)[C@H](CCC(N)=O)NC(=O)[C@H](CCCNC(=N)N)NC(=O)[C@H](CO)NC1=O)C(=O)N[C@@H](CC(C)C)C(=O)N[C@@H](CCC(=O)O)C(=O)N1CCC[C@H]1C(=O)N3)NC(=O)[C@H](CCCCN)NC(=O)CNC(=O)[C@H](CC(N)=O)NC(=O)[C@H](CCSC)NC2=O` [K19E] (H-GVIINVKCKISRQCLEPCEKAGMRFGKCMNGKCHCTPK-OH; disulfide 8-28, 14-33, 18-35), the IC50 against human Kv1.3 (CHO) worked out at 0.0235 nM; at human Kv1.1 (HEK293), 0.0137 nM.

Turning to `CC[C@H](C)[C@@H]1NC(=O)[C@H](CCCCN)NC(=O)[C@@H](NC(=O)[C@H](CCCCN)NC(=O)[C@@H](NC(=O)[C@H](CC(N)=O)NC(=O)[C@@H](NC(=O)[C@@H](NC(=O)[C@@H](NC(=O)CN)C(C)C)[C@@H](C)CC)[C@@H](C)CC)C(C)C)CSSC[C@@H]2NC(=O)[C@H](CCCCN)NC(=O)CNC(=O)[C@H](Cc3ccccc3)NC(=O)[C@H](CCCNC(=N)N)NC(=O)[C@H](CCSC)NC(=O)CNC(=O)[C@H](C)NC(=O)[C@H](CCCCN)NC(=O)[C@H](CCCNC(=N)N)NC(=O)[C@@H]3CSSC[C@@H](C(=O)N[C@H](C(=O)N4CCC[C@H]4C(=O)N[C@@H](CCCCN)C(=O)O)[C@@H](C)O)NC(=O)[C@H](Cc4c[nH]cn4)NC(=O)[C@H](CSSC[C@H](NC(=O)[C@H](CCC(N)=O)NC(=O)[C@H](CCCNC(=N)N)NC(=O)[C@H](CO)NC1=O)C(=O)N[C@@H](CC(C)C)C(=O)N[C@@H](CCC(=O)O)C(=O)N1CCC[C@H]1C(=O)N3)NC(=O)[C@H](CCCCN)NC(=O)CNC(=O)[C@H](CC(N)=O)NC(=O)[C@H](CCSC)NC2=O` [K19R] (H-GVIINVKCKISRQCLEPCRKAGMRFGKCMNGKCHCTPK-OH; disulfide 8-28, 14-33, 18-35), the IC50 was 0.0126 nM on human Kv1.3 (CHO) and 0.00241 nM on human Kv1.1 (HEK293).

Take `CC[C@H](C)[C@@H]1NC(=O)[C@H](CCCCN)NC(=O)[C@@H](NC(=O)[C@H](CCCCN)NC(=O)[C@@H](NC(=O)[C@H](CC(N)=O)NC(=O)[C@@H](NC(=O)[C@@H](NC(=O)[C@@H](NC(=O)CN)C(C)C)[C@@H](C)CC)[C@@H](C)CC)C(C)C)CSSC[C@@H]2NC(=O)[C@H](CCCCN)NC(=O)CNC(=O)[C@H](Cc3ccccc3)NC(=O)[C@H](CCCNC(=N)N)NC(=O)[C@H](CCSC)NC(=O)CNC(=O)[C@H](C)NC(=O)[C@H](C)NC(=O)[C@H](CCCCN)NC(=O)[C@@H]3CSSC[C@@H](C(=O)N[C@H](C(=O)N4CCC[C@H]4C(=O)N[C@@H](CCCCN)C(=O)O)[C@@H](C)O)NC(=O)[C@H](Cc4c[nH]cn4)NC(=O)[C@H](CSSC[C@H](NC(=O)[C@H](CCC(N)=O)NC(=O)[C@H](CCCNC(=N)N)NC(=O)[C@H](CO)NC1=O)C(=O)N[C@@H](CC(C)C)C(=O)N[C@@H](CCC(=O)O)C(=O)N1CCC[C@H]1C(=O)N3)NC(=O)[C@H](CCCCN)NC(=O)CNC(=O)[C@H](CC(N)=O)NC(=O)[C@H](CCSC)NC2=O` [K20A] (H-GVIINVKCKISRQCLEPCKAAGMRFGKCMNGKCHCTPK-OH; disulfide 8-28, 14-33, 18-35): the values for the IC50 against human Kv1.3 (CHO) and against human Kv1.1 (HEK293) were 1.04 nM and 0.185 nM, respectively.
